Experimental data: article PMC11350758, “Development of Xanthoangelol-Derived Compounds with Membrane-Disrupting Effects against Gram-Positive Bacteria” (Antibiotics, 2024)
Converted amounts (≈) assume the structure as drawn. Read-outs that look alike come from different tables or passages of the source.

Experiments:
Type in all cases: cell-based
[1] = test system: Staphylococcus aureus ATCC43300, methicillin-resistant strain; assay: microbe, parasite or virus in culture; settings: for MIC: ATCC 43300 / MRSA, read-out: MIC S. a 43300
Experimental: (§1) All target derivatives were assessed for their in vitro antibacterial activities using a broth microdilution assay to test their minimum inhibitory concentrations (MICs) against six Gram-positive strains (S. aureus ATCC31007, S. aureus ATCC25923, S. aureus ATCC43300, E. faecalis ATCC29212, B. subtilis ATCC9372, and S. epidermidis ATCC12228) and four Gram-negative strains (A. baumannii ATCC19606, K. pneumonia ATCC10031, E. coli ATCC25922, and P. aeruginosa ATCC27853). These compounds were also evaluated for their hemolytic activities and membrane selectivity by determining their HC50 (the concentration required to lyse 50% of red blood cells) and SI (HC50/MICs) values, respectively, and vancomycin was used as the positive drug.
(§2) MICs of the derivatives were determined by the micro broth dilution method according to the American Clinical and Laboratory Standards Institute (CLSI) standards. Briefly, 2-fold serial dilutions of target compounds were prepared in 96-well plates containing TSB broth. An equal volume of bacterial suspension (10^6 CFU/mL) was then pipetted into each well, and the mixture was incubated at 37 °C for 24 h. […] All biological experiments were repeated three times.

[2] = test system: Enterococcus faecalis ATCC51299, vancomycin-resistant strain; assay: MIC, broth microdilution; settings: Enterococcus faecalis, ATCC51299, read-out: MIC E. f. 51299
Experimental: as §2

[3] = test system: Enterococcus faecium ATCC51559, vancomycin-resistant strain; assay: MIC, broth microdilution; settings: Enterococcus faecium, ATCC51559, read-out: MIC E. f. 51559
Experimental: as §2

[4] = test system: Escherichia coli ATCC25922, penicillin-susceptible strain; assay: MIC, broth microdilution; settings: Escherichia coli, ATCC25922, read-out: MIC E. c. 25922
Experimental: as §1, §2

[5] = test system: Staphylococcus aureus ATCC25923, erythromycin-susceptible strain; assay: MIC, broth microdilution; settings: Staphylococcus aureus, ATCC25923, read-out: MIC S. a. 25923
Experimental: as §1, §2

[6] = test system: Pseudomonas aeruginosa ATCC27853; assay: MIC, broth microdilution; settings: Pseudomonas aeruginosa, ATCC27853, read-out: MIC P. a. 27853
Experimental: as §1, §2

[7] = test system: Acinetobacter baumannii ATCC19606; assay: MIC, broth microdilution; settings: Acinetobacter baumannii, ATCC19606, read-out: MIC A. b. 19606
Experimental: as §1, §2

[8] = test system: Staphylococcus epidermidis ATCC12228, erythromycin-susceptible strain; assay: MIC, broth microdilution; settings: Staphylococcus epidermidis, ATCC12228, read-out: MIC S. e. 12228
Experimental: as §1, §2

[9] = test system: Enterococcus faecalis ATCC29212, vancomycin-susceptible strain; assay: MIC, broth microdilution; settings: Enterococcus faecalis, ATCC29212, read-out: MIC E. f. 29212
Experimental: as §1, §2

[10] = test system: Klebsiella pneumonia ATCC10031; assay: MIC, broth microdilution; settings: Klebsiella pneumoniae, ATCC10031, read-out: MIC K. p. 10031
Experimental: as §1, §2

[11] = test system: Bacillus subtilis ATCC9372, penicillin-susceptible strain; assay: MIC, broth microdilution; settings: Bacillus subtilis, ATCC9372, read-out: MIC B. s. 9372
Experimental: as §1, §2

[12] = test system: Staphylococcus aureus ATCC31007, penicillin-resistant strain; assay: MIC, broth microdilution; settings: Staphylococcus aureus, ATCC31007, read-out: MIC S. a. 31007
Experimental: as §1, §2

S. aureus ATCC4330 = assay: microbe, parasite or virus in culture; settings: control compounds of the ROS assay
Experimental: Due to the presence of various biological enzymes in plasma, natural AMPs are susceptible to enzymatic degradation upon entering the bloods, leading to a loss of their antimicrobial activity. To evaluate the plasma stability of active compound 9h, we conducted a stability assay by determining their MBC (minimum bactericidal concentration) values in plasma and different blood components. […] The observed initial increase in the MBC value, followed by remaining unchanged, could potentially be attributed to the initial binding of compound 9h with plasma proteins, causing a reduction in its activity. Once this binding became saturated, the bactericidal activity of the compound remained stable, further indicating the good stability of compound 9h in plasma.
MBCs of the compounds were tested. Furthermore, MBCs of compounds in 50% plasma, 50% serum, and 50% blood suspension were tested. The MBC value is defined as the concentration at which the colony count is less than 5 after 18 h of incubation at 37 °C. All biological experiments were repeated three times.

S. aureus ATCC43300 [13] = assay: ROS assay (DCFH-DA); settings: control compounds
Experimental: It is known that the disruption of bacterial cell membranes often causes the production of ROS in bacterial cells. The fluorescent probe DCFH-DA was used to monitor the level of intracellular ROS produced by S. aureus ATCC43300. DCFH-DA is initially non-fluorescent; however, it undergoes hydrolysis to DCFH upon entry into the cell. Subsequently, DCFH is converted to the fluorescent compound DCF when ROS are produced in the cells. […] The fluorescence intensity of 9h was about 8-fold higher than the PBS-treated group when the concentration of 9h increased 16 μg/mL.
Mid-log S. aureus ATCC43300 was collected and resuspended in PBS. Bacteria suspension (1.0 × 10^8 CFU/mL) was placed into a 96-well plate, and an equal volume of DCF-DA (10.0 μM) was mixed and incubated at 37 °C for 30 min. After incubation, the suspension was centrifuged (3500 rpm, 4 min), and the supernatant was removed and resuspended in PBS. […] The fluorescence intensity of each well was recorded by a microplate reader (Ex = 488 nm and Em = 530 nm). All biological experiments were repeated three times.

S. aureus ATCC43300 [14] = assay: DNA leakage study; settings: control compound
Experimental: The destruction of bacterial cell membranes usually causes the leakage of macromolecules, including DNA and proteins. To investigate the effect of the compound 9h on the leakage of cytoplasmic contents, we performed DNA and protein leakage assays against S. aureus ATCC43300. The degree of damage to the bacterial cell membrane could be reflected by the concentrations of DNA and protein. The non-membrane-targeted antibiotic ciprofloxacin, membrane-targeted peptide melittin, and PBS were used as controls. […] A similar result were also observed in the leakage of protein with S. aureus (Figure 8C).
Mid-log S. aureus ATCC43300 was collected and resuspended in PBS (1.0 × 10^8 CFU/mL). […] The concentration of the protein was determined according to the method of the BCA assay kit (Thermo Fisher Scientific, Waltham, MA, USA), and the concentration of DNA in the supernatant was tested by a micro-spectrophotometer. All biological experiments were repeated three times.

S. aureus ATCC43300 [15] = assay: Resistance development assay (serial passage); settings: at the 19th passage
Experimental: The rapid increase in bacterial resistance to antibiotics is a major challenge in clinical treatment, and in order to assess the drug resistance development for compound 9h, we performed a drug resistance assay against S. aureus ATCC43300. Norfloxacin was selected as the positive control. The S. aureus cells were incubated with sub-MIC (1/2 MIC) concentration of compound 9h and were serially passaged for a duration of 20 days.
Resistance was defined as a more than 4-fold increase in the tested compound in MIC when compared to the beginning value. Briefly, S. aureus ATCC43300 was cultured (37 °C, 200 rpm) in MHB broth for 5 h and diluted to 1 × 10^6 CFU/mL. Then, the bacteria were cultured with compound 9h at a sub-MIC concentration (1/2 MIC) for 18 h. The MICs were determined according to this method for consecutive 20 days. All biological experiments were repeated three times.

[16] = Staphylococcus aureus ATCC43300 (MRSA)

## CN[C@H](CC(C)C)C(=O)N[C@H]1C(=O)N[C@@H](CC(N)=O)C(=O)N[C@H]2C(=O)N[C@H]3C(=O)N[C@H](C(=O)N[C@H](C(=O)O)c4cc(O)cc(O)c4-c4cc3ccc4O)[C@H](O)c3ccc(c(Cl)c3)Oc3cc2cc(c3O[C@@H]2O[C@H](CO)[C@@H](O)[C@H](O)[C@H]2O[C@H]2C[C@](C)(N)[C@H](O)[C@H](C)O2)Oc2ccc(cc2Cl)[C@H]1O [Van, vancomycin, reference compound]
[1]; Staphylococcus aureus
  MIC: 2 µg/mL (≈ 1.38 µM)
[2]
  MIC: 128 µg/mL (≈ 88.3 µM)
[3]
  MIC: 128 µg/mL (≈ 88.3 µM)
[4]
  MIC: 128 µg/mL (≈ 88.3 µM)
[5]
  MIC: 1 µg/mL (≈ 0.69 µM)
[6]
  MIC: > 128 µg/mL
[7]
  MIC: 16 µg/mL (≈ 11 µM)
[8]
  MIC: 2 µg/mL (≈ 1.38 µM)
[9]
  MIC: 2 µg/mL (≈ 1.38 µM)
[10]
  MIC: 128 µg/mL (≈ 88.3 µM)
[11]
  MIC: 0.5 µg/mL (≈ 0.345 µM)
[12]
  MIC: 1 µg/mL (≈ 0.69 µM)

## O=C(O)c1cn(C2CC2)c2cc(N3CCNCC3)c(F)cc2c1=O [ciprofloxacin, reference compound]
S. aureus ATCC4330; Staphylococcus aureus, ATCC 4330 / ATCC 43300, against S. aureus ATCC43300, read-out: MBC
  MBC: 2 µg/mL (≈ 6.04 µM)
S. aureus ATCC43300 [13]
  effect on ROS fluorescence intensity: little change in fluorescence intensity
[1]; [16]
  MIC: 0.25 µg/mL (≈ 0.754 µM)
S. aureus ATCC43300 [14]
  effect on DNA concentration: changed little

## CCn1cc(C(=O)O)c(=O)c2cc(F)c(N3CCNCC3)cc21 [norfloxacin, reference compound]
S. aureus ATCC43300 [15]
  fold increase in MIC: 512 fold

## CC[C@H](C)[C@H](NC(=O)CN)C(=O)NCC(=O)N[C@@H](C)C(=O)N[C@H](C(=O)N[C@@H](CC(C)C)C(=O)N[C@@H](CCCCN)C(=O)N[C@H](C(=O)N[C@@H](CC(C)C)C(=O)N[C@H](C(=O)N[C@H](C(=O)NCC(=O)N[C@@H](CC(C)C)C(=O)N1CCC[C@H]1C(=O)N[C@@H](C)C(=O)N[C@@H](CC(C)C)C(=O)N[C@H](C(=O)N[C@@H](CO)C(=O)N[C@@H](Cc1c[nH]c2ccccc12)C(=O)N[C@H](C(=O)N[C@@H](CCCCN)C(=O)N[C@@H](CCCNC(=N)N)C(=O)N[C@@H](CCCCN)C(=O)N[C@@H](CCCNC(=N)N)C(=O)N[C@@H](CCC(N)=O)C(=O)N[C@@H](CCC(N)=O)C(N)=O)[C@@H](C)CC)[C@@H](C)CC)[C@@H](C)O)[C@@H](C)O)C(C)C)C(C)C [melittin, reference compound]
S. aureus ATCC4330; against S. aureus ATCC43300
  MBC: 32 µg/mL (≈ 11.2 µM)
S. aureus ATCC43300 [13]
  effect on ROS fluorescence intensity: dose-dependently increase the fluorescence intensity
[1]; [16]
  MIC S. a 43300: 8 µg/mL (≈ 2.81 µM)
